Measurements reported in ChEMBL document CHEMBL1250518, “Nonsteroidal dissociated glucocorticoid agonists containing azaindoles as steroid A-ring mimetics” (J Med Chem, 2010).

Target: T1, Progesterone receptor (Homo sapiens, UniProt P06401)
T1 sequence (P06401 whole entry): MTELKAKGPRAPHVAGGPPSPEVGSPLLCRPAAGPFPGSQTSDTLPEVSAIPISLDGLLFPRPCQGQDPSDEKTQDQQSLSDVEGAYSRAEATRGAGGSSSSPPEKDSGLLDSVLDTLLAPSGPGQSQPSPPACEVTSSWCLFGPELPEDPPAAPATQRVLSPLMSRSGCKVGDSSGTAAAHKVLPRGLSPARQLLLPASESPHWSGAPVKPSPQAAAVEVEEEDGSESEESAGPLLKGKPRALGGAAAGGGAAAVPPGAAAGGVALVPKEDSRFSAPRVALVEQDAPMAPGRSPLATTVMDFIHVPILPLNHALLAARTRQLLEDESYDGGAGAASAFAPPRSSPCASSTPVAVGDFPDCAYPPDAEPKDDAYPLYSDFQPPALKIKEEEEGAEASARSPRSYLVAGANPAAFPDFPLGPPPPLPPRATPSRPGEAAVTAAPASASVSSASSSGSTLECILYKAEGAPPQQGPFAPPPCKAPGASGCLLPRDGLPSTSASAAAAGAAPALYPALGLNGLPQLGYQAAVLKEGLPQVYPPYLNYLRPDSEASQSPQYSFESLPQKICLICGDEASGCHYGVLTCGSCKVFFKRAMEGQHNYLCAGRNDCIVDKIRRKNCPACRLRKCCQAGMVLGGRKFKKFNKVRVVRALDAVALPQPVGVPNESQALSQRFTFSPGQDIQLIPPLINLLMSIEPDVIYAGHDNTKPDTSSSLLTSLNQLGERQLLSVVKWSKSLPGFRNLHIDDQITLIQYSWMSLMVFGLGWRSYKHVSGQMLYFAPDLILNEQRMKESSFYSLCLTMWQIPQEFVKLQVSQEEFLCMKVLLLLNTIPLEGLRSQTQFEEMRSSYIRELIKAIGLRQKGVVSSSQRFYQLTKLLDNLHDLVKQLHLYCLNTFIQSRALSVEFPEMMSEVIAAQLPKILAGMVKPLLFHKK
Experiment: Binding affinity to progesterone receptor expressed in baculovirus-infected insect cells using tetramethylrhodamine labeled RU-486 by fluorescence polarization microplate assay

Molecule `CC(C)(C[C@@](O)(Cc1cc2ccncc2[nH]1)C(F)(F)F)c1cc(F)ccc1O` has an IC50 of 1200 nM.
